Laboratory results published in PubChem BioAssay AID248 (DTP/NCI, 2004).
Where “and” joins values, the source holds several entries; their conditions need not be identical. Equal values may be shown once. Inconclusive results and toxic doses are left out. No stated cut-off is given here; in the data, active means T/C of 150% or more; inactive means T/C below 125%.

System: L1210 leukemia ip in BDF1 mice, survival T/C
Experiment: NCI In Vivo Anticancer Drug Screen. Data for tumor model L1210 Leukemia (intraperitoneal) in B6D2F1 (BDF1) mice
Details: endpoint: mean survival time, higher = longer survival
Procedure, shortened: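 Each compound was tested against a transplantable tumor grown in mice. The endpoint was survival, with treated animals benchmarked against vehicle controls as a simple ratio.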

[1] = dose: 100.0 mg/kg/injection, schedule: Q01DX009 (ip), vehicle: saline
[2] = dose: 100.0 mg/kg/injection, schedule: Q04DX003 (ip), vehicle: saline
[3] = dose: 200.0 mg/kg/injection, schedule: Q01DX009 (ip), vehicle: saline
[4] = dose: 200.0 mg/kg/injection, schedule: Q04DX003 (ip), vehicle: saline
[5] = dose: 400.0 mg/kg/injection, schedule: Q04DX003 (ip), vehicle: saline
[6] = dose: 100.0 mg/kg/injection, schedule: Q01DX001 (ip), vehicle: saline
[7] = dose: 200.0 mg/kg/injection, schedule: Q01DX001 (ip), vehicle: saline
[8] = dose: 400.0 mg/kg/injection, schedule: Q01DX001 (ip), vehicle: saline
[9] = dose: 25.0 mg/kg/injection, schedule: Q01DX009 (ip), vehicle: saline with Tween-80
[10] = dose: 50.0 mg/kg/injection, schedule: Q01DX009 (ip), vehicle: saline with Tween-80
[11] = dose: 100.0 mg/kg/injection, schedule: Q01DX009 (ip), vehicle: saline with Tween-80
[12] = dose: 100.0 mg/kg/injection, schedule: Q04DX002 (ip), vehicle: saline
[13] = dose: 100.0 mg/kg/injection, schedule: Q01DX009 (ip), vehicle: Klucel (hydroxypropylcellulose) (HPC)
[14] = dose: 200.0 mg/kg/injection, schedule: Q01DX009 (ip), vehicle: Klucel (hydroxypropylcellulose) (HPC)
[15] = dose: 400.0 mg/kg/injection, schedule: Q01DX009 (ip), vehicle: Klucel (hydroxypropylcellulose) (HPC)
[16] = dose: 100.0 mg/kg/injection, schedule: Q04DX003 (ip), vehicle: saline with Tween-80
[17] = dose: 200.0 mg/kg/injection, schedule: Q04DX003 (ip), vehicle: saline with Tween-80
[18] = dose: 200.0 mg/kg/injection, schedule: Q01DX009 (ip), vehicle: saline with Tween-80
[19] = dose: 400.0 mg/kg/injection, schedule: Q01DX009 (ip), vehicle: saline with Tween-80
[20] = dose: 400.0 mg/kg/injection, schedule: Q04DX003 (ip), vehicle: saline with Tween-80

Measured: T/C

COC(=O)C(C)NCc1ccccc1 (stereo unspecified)
inactive: [1] 95 % of control | [2] 107 % of control | [3] 100 % of control | [4] 107 % of control | dose: 400.0 mg/kg/injection, schedule: Q01DX009 (ip), vehicle: saline 100 % of control | [5] 102 % of control

SCc1ccccn1
inactive: dose: 30.0 mg/kg/injection, schedule: Q01DX015 (ip), vehicle: saline 103 % of control | dose: 60.0 mg/kg/injection, schedule: Q01DX015 (ip), vehicle: saline 94 % of control | [6] 107 % of control | dose: 120.0 mg/kg/injection, schedule: Q01DX015 (ip), vehicle: saline 120 % of control | [7] 107 % of control | dose: 240.0 mg/kg/injection, schedule: Q01DX015 (ip), vehicle: saline 111 % of control | [8] 107 % of control | dose: 400.0 mg/kg/injection, schedule: Q01DX015 (ip), vehicle: saline 90 % of control

CC1(CBr)OCCCO1
inactive: [9] 96 % of control | dose: 25.0 mg/kg/injection, schedule: Q04DX002 (ip), vehicle: saline 93 % of control | [10] 103 % of control | dose: 50.0 mg/kg/injection, schedule: Q04DX002 (ip), vehicle: saline 93 % of control | [11] 103 % of control | dose: 100.0 mg/kg/injection, schedule: Q04DX002 (ip), vehicle: saline with Tween-80 95 % of control | [12] 93 % of control

CN1C(=O)c2ccccc2C1(N)c1ccccc1 (stereo unspecified)
inactive: [13] 90 % of control | [14] 105 % of control | [15] 100 % of control

C=C1C(O)CC2CC1C2(C)C (stereo unspecified)
inactive: [16] 92 % of control | [17] 92 % of control

O=c1oc(-c2ccccc2I)nc2ccccc12
inactive: dose: 50.0 mg/kg/injection, schedule: Q04DX003 (ip), vehicle: Klucel (hydroxypropylcellulose) (HPC) 88 % of control | [13] 95 % of control | dose: 100.0 mg/kg/injection, schedule: Q04DX003 (ip), vehicle: Klucel (hydroxypropylcellulose) (HPC) 103 % of control | [14] 97 % of control | dose: 200.0 mg/kg/injection, schedule: Q04DX003 (ip), vehicle: Klucel (hydroxypropylcellulose) (HPC) 97 % of control | [15] 88 % of control | dose: 400.0 mg/kg/injection, schedule: Q04DX003 (ip), vehicle: Klucel (hydroxypropylcellulose) (HPC) 104 % of control

CCCCCCCC/C=C\CCCCCCCC(=O)OC
inactive: [11] 91 % of control | [16] 96 % of control | [18] 92 % of control | [17] 100 % of control | [19] 95 % of control | [20] 98 % of control

CC(=O)OCc1ccc(Cl)c(Cl)c1
inactive: dose: 50.0 mg/kg/injection, schedule: Q01DX009 (ip), vehicle: saline sonified 100 % of control | dose: 100.0 mg/kg/injection, schedule: Q01DX009 (ip), vehicle: saline sonified 100 % of control | dose: 100.0 mg/kg/injection, schedule: Q04DX003 (ip), vehicle: saline sonified 101 % of control | dose: 200.0 mg/kg/injection, schedule: Q01DX009 (ip), vehicle: saline sonified 97 % of control | dose: 200.0 mg/kg/injection, schedule: Q04DX003 (ip), vehicle: saline sonified 107 % of control | dose: 400.0 mg/kg/injection, schedule: Q04DX003 (ip), vehicle: saline sonified 106 % of control

FC(F)C(F)(F)C(F)(F)C(F)(F)C(F)(F)C(F)(F)COc1nc(OCC(F)(F)C(F)(F)C(F)(F)C(F)(F)C(F)(F)C(F)F)nc(OCC(F)(F)C(F)(F)C(F)(F)C(F)(F)C(F)(F)C(F)F)n1
inactive: dose: 25.6 mg/kg/injection, schedule: Q04DX002 (ip), vehicle: saline with Tween-80 97 % of control | [10] 89 % of control | dose: 64.0 mg/kg/injection, schedule: Q04DX002 (ip), vehicle: saline with Tween-80 91 % of control | [11] 92 % of control | [16] 91 % of control | dose: 160.0 mg/kg/injection, schedule: Q04DX002 (ip), vehicle: saline with Tween-80 97 % of control | [18] 90 % of control | [17] 86 % of control | dose: 400.0 mg/kg/injection, schedule: Q04DX002 (ip), vehicle: saline with Tween-80 91 % of control | [20] 87 % of control

O=[N+]([O-])Nc1cc(Cl)nc(Cl)c1
inactive: dose: 75.0 mg/kg/injection, schedule: Q01DX001 (ip), vehicle: carboxymethylcellulose (CMC) 105 % of control | dose: 150.0 mg/kg/injection, schedule: Q01DX001 (ip), vehicle: carboxymethylcellulose (CMC) 97 % of control

CC(C(N)=O)N1C(=O)C2C3CCC(C3)C2C1=O (stereo unspecified)
inactive: [2] 103 % of control | [4] 91 % of control | [5] 86 % of control

Nc1n[nH]c(=S)s1
inactive: dose: 46.0 mg/kg/injection, schedule: Q03HX032 (ip), vehicle: Klucel (hydroxypropylcellulose) (HPC) 102 % of control | dose: 70.0 mg/kg/injection, schedule: Q03HX032 (ip), vehicle: Klucel (hydroxypropylcellulose) (HPC) 105 % of control | [13] 95 % of control | dose: 105.0 mg/kg/injection, schedule: Q03HX032 (ip), vehicle: Klucel (hydroxypropylcellulose) (HPC) 108 % of control | dose: 158.0 mg/kg/injection, schedule: Q03HX032 (ip), vehicle: Klucel (hydroxypropylcellulose) (HPC) 106 % of control | dose: 183.0 mg/kg/injection, schedule: Q01DX015 (ip), vehicle: Klucel (hydroxypropylcellulose) (HPC) 108 % of control | [14] 117 % of control | dose: 236.0 mg/kg/injection, schedule: Q03HX032 (ip), vehicle: Klucel (hydroxypropylcellulose) (HPC) 114 % of control | dose: 264.0 mg/kg/injection, schedule: Q01DX015 (ip), vehicle: Klucel (hydroxypropylcellulose) (HPC) 115 % of control | dose: 394.0 mg/kg/injection, schedule: Q01DX015 (ip), vehicle: Klucel (hydroxypropylcellulose) (HPC) 116 % of control | dose: 440.0 mg/kg/injection, schedule: Q01DX001 (ip), vehicle: Klucel (hydroxypropylcellulose) (HPC) 101 % of control | dose: 670.0 mg/kg/injection, schedule: Q01DX001 (ip), vehicle: Klucel (hydroxypropylcellulose) (HPC) 94 % of control

CC(C)COP(=O)(Cc1ccccc1)OCC(C)C
inactive: [13] 110 % of control | [14] 101 % of control

CN1CCC/C1=N\c1nn[nH]n1
inactive: dose: 100.0 mg/kg/injection, schedule: Q01DX001 (ip), vehicle: Klucel (hydroxypropylcellulose) (HPC) 106 % of control | dose: 200.0 mg/kg/injection, schedule: Q01DX001 (ip), vehicle: Klucel (hydroxypropylcellulose) (HPC) 97 % of control | dose: 400.0 mg/kg/injection, schedule: Q01DX001 (ip), vehicle: Klucel (hydroxypropylcellulose) (HPC) 93 % of control

Cc1ccc(C)c2c1CCCC2=O
inactive: dose: 12.5 mg/kg/injection, schedule: Q01DX009 (ip), vehicle: saline with Tween-80 110 % of control | [9] 107 % of control and 114 % of control | [10] 98 % of control and 106 % of control | [11] 88 % of control | [18] 93 % of control | [19] 96 % of control

CCCCCCCCCCCNC=O
inactive: [6] 103 % of control | [7] 101 % of control | [8] 101 % of control

CCN(CC)CCOc1ccc(C=O)cc1
inactive: [12] 99 % of control | dose: 200.0 mg/kg/injection, schedule: Q04DX002 (ip), vehicle: saline 95 % of control

FC(F)(F)C(F)(C1=NS1(F)C(F)(C(F)(F)F)C(F)(F)F)C(F)(F)F (stereo unspecified)
inactive: dose: 100.0 mg/kg/injection, schedule: Q01DX001 (ip), vehicle: acetone 101 % of control | dose: 200.0 mg/kg/injection, schedule: Q01DX001 (ip), vehicle: acetone 95 % of control | dose: 400.0 mg/kg/injection, schedule: Q01DX001 (ip), vehicle: acetone 100 % of control

c1ccc(C2=NC3CCCCC3N=C2c2ccccc2)cc1 (stereo unspecified)
inactive: [16] 101 % of control | [17] 95 % of control | [20] 96 % of control

Cc1ccc(S(=O)(=O)OCC(CO)(CO)[N+](=O)[O-])cc1
inactive: dose: 50.0 mg/kg/injection, schedule: Q01DX009 (ip), vehicle: saline 90 % of control | [1] 92 % of control | [2] 97 % of control | [3] 90 % of control | [4] 88 % of control

BrC1CCCCC1Br (stereo unspecified)
inactive: [6] 98 % of control | [7] 101 % of control
